From PubChem BioAssay AID206 (DTP/NCI, 2004)
Where “and” joins values, the source holds several entries; their conditions need not be identical. Equal values may be shown once. Results filed as inconclusive are left out.

Tested on: nude mice, HT29 intrarenal xenograft, tumor weight T/C
Experiment: NCI In Vivo Anticancer Drug Screen. Data for tumor model HT29;CX-1 Human Adenocarcinoma (MER+) (intrarenal inoculation) in NU/NU Swiss (nude) mice
Settings: endpoint: mean tumor weight change, higher = larger tumour
Outline: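 Endpoint measured as tumor size or survival; ratio reported is treated group over vehicle controls.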

[1] = dose: 12.5 mg/kg/injection, schedule: Q01DX010 (sc), vehicle: saline with Tween-80
[2] = dose: 25.0 mg/kg/injection, schedule: Q01DX010 (sc), vehicle: saline with Tween-80
[3] = dose: 1.0 mg/kg/injection, schedule: Q01DX010 (sc), vehicle: saline
[4] = dose: 2.0 mg/kg/injection, schedule: Q01DX010 (sc), vehicle: saline
[5] = dose: 4.0 mg/kg/injection, schedule: Q01DX010 (sc), vehicle: saline
[6] = dose: 75.0 mg/kg/injection, schedule: Q04DX004 (sc), vehicle: saline with Tween-80
[7] = dose: 150.0 mg/kg/injection, schedule: Q04DX004 (sc), vehicle: saline with Tween-80
[8] = dose: 600.0 mg/kg/injection, schedule: Q04DX004 (sc), vehicle: saline with Tween-80
[9] = dose: 50.0 mg/kg/injection, schedule: Q01DX010 (sc), vehicle: saline with Tween-80

O=C(O)CC(=O)O.[NH-]C1CCCCC1[NH-].[Pt+2] (configuration not stated)
T/C (dose: 10.0 mg/kg/injection, schedule: Q01DX010 (sc), vehicle: dextrose): 264 % of control | T/C (dose: 15.0 mg/kg/injection, schedule: Q01DX010 (sc), vehicle: dextrose): 73 % of control | T/C (dose: 30.0 mg/kg/injection, schedule: Q01DX010 (sc), vehicle: dextrose): 32 % of control and 43 % of control | T/C (dose: 40.0 mg/kg/injection, schedule: Q01DX010 (sc), vehicle: dextrose): 21 % of control | T/C (dose: 60.0 mg/kg/injection, schedule: Q01DX010 (sc), vehicle: dextrose): 34 % of control and 44 % of control | T/C (dose: 120.0 mg/kg/injection, schedule: Q01DX010 (sc), vehicle: dextrose): 51 % of control

OCC12COCN1COC2
T/C (dose: 150.0 mg/kg/injection, schedule: Q04DX004 (sc), vehicle: saline): 88 % of control | T/C (dose: 300.0 mg/kg/injection, schedule: Q04DX004 (sc), vehicle: saline): 76 % of control | T/C (dose: 600.0 mg/kg/injection, schedule: Q04DX004 (sc), vehicle: saline): 94 % of control | T/C (dose: 1200.0 mg/kg/injection, schedule: Q04DX004 (sc), vehicle: saline): 90 % of control

CCOC(=O)C(N)CSC(=O)NC (configuration not stated)
T/C (dose: 100.0 mg/kg/injection, schedule: Q04DX004 (sc), vehicle: saline): 92 % of control | T/C (dose: 200.0 mg/kg/injection, schedule: Q04DX004 (sc), vehicle: saline): 96 % of control | T/C (dose: 400.0 mg/kg/injection, schedule: Q04DX004 (sc), vehicle: saline): 103 % of control | T/C (dose: 800.0 mg/kg/injection, schedule: Q04DX004 (sc), vehicle: saline): 62 % of control

CN(N=O)C(N)=O
T/C [1]: 119 % of control | T/C [2]: 41 % of control | T/C (dose: 100.0 mg/kg/injection, schedule: Q04DX004 (sc), vehicle: suspension in saline): 101 % of control

CN(C)CCN1C(=O)c2cccc3cc(N)cc(c23)C1=O
T/C (dose: 64.0 mg/kg/injection, schedule: Q04DX004 (sc), vehicle: saline with Tween-80): 70 % of control

COc1cccc2c1C(=O)c1c(O)c3c(c(O)c1C2=O)C[C@@](O)(C(=O)CO)C[C@@H]3OC1CC(N)C(O)C(C)O1 (some centres not stated)
T/C (dose: 0.25 mg/kg/injection, schedule: Q01DX010 (ip), vehicle: water): -27 % of control | T/C (dose: 0.5 mg/kg/injection, schedule: Q01DX010 (sc), vehicle: saline): 62 % of control | T/C [3]: 30 % of control and 32 % of control | T/C (dose: 1.5 mg/kg/injection, schedule: Q01DX010 (sc), vehicle: saline): 96 % of control | T/C (dose: 2.0 mg/kg/injection, schedule: Q01DX010 (ip), vehicle: water): -20 % of control | T/C [4]: 15 % of control and 29 % of control | T/C (dose: 3.0 mg/kg/injection, schedule: Q01DX010 (sc), vehicle: saline): 109 % of control | T/C [5]: 4 % of control and 27 % of control | T/C (dose: 6.0 mg/kg/injection, schedule: Q01DX010 (sc), vehicle: saline): 102 % of control | T/C (dose: 7.5 mg/kg/injection, schedule: Q04DX004 (sc), vehicle: saline): 62 % of control

C=CCNc1ccc(C)cc1
T/C (dose: 50.0 mg/kg/injection, schedule: Q01DX010 (sc), vehicle: Klucel (hydroxypropylcellulose) (HPC)): 105 % of control | T/C (dose: 200.0 mg/kg/injection, schedule: Q01DX010 (sc), vehicle: Klucel (hydroxypropylcellulose) (HPC)): 86 % of control

OCCO
T/C (dose: 4.0 % in 0.5 ml injection vol, schedule: Q04DX004 (sc), vehicle: other): 85 % of control | T/C (dose: 8.0 % in 0.5 ml injection vol, schedule: Q04DX004 (sc), vehicle: other): 46 % of control | T/C (dose: 16.0 % in 0.5 ml injection vol, schedule: Q04DX004 (sc), vehicle: other): 26 % of control

CCN(CC)CCNc1ccc(C)c2sc3ccc(O)cc3c(=O)c12
T/C [6]: 53 % of control | T/C [7]: 74 % of control | T/C [8]: 103 % of control | T/C (dose: 1200.0 mg/kg/injection, schedule: Q04DX004 (sc), vehicle: saline with Tween-80): 41 % of control | T/C (dose: 2400.0 mg/kg/injection, schedule: Q04DX004 (sc), vehicle: saline with Tween-80): 58 % of control

COc1cc2c[n+](C)c3c4cc5c(cc4ccc3c2cc1OC)OCO5
T/C (dose: 50.0 mg/kg/injection, schedule: Q04DX004 (sc), vehicle: saline with Tween-80): 67 % of control | T/C (dose: 100.0 mg/kg/injection, schedule: Q04DX004 (sc), vehicle: saline with Tween-80): 48 % of control | T/C (dose: 200.0 mg/kg/injection, schedule: Q04DX004 (sc), vehicle: saline with Tween-80): 79 % of control | T/C (dose: 400.0 mg/kg/injection, schedule: Q04DX004 (sc), vehicle: saline with Tween-80): 60 % of control

OCCCN1CCCCC1CO (configuration not stated)
T/C (dose: 225.0 mg/kg/injection, schedule: Q04DX004 (sc), vehicle: saline): 106 % of control | T/C (dose: 450.0 mg/kg/injection, schedule: Q04DX004 (sc), vehicle: saline): 89 % of control | T/C (dose: 900.0 mg/kg/injection, schedule: Q04DX004 (sc), vehicle: saline): 92 % of control

c1ccc2sc(SSN3CC4CCC(CC4)C3)nc2c1
T/C [9]: 120 % of control | T/C (dose: 400.0 mg/kg/injection, schedule: Q01DX010 (sc), vehicle: saline with Tween-80): 96 % of control

C=C1CC2(OC1=O)C(=O)N(C)c1ccc(I)cc12 (configuration not stated)
T/C (dose: 37.5 mg/kg/injection, schedule: Q04DX004 (sc), vehicle: suspension in saline): 80 % of control | T/C (dose: 75.0 mg/kg/injection, schedule: Q04DX004 (sc), vehicle: suspension in saline): 71 % of control | T/C (dose: 150.0 mg/kg/injection, schedule: Q04DX004 (sc), vehicle: suspension in saline): 81 % of control

CC(C)[C@]12O[C@H]1[C@@H]1O[C@]13[C@]1(O[C@H]1C[C@H]1C4=C(C(=O)OC4)[C@@H](O)C[C@@]13C)[C@@H]2O
T/C (dose: 0.1 mg/kg/injection, schedule: Q01DX010 (sc), vehicle: saline + alcohol): 63 % of control | T/C (dose: 0.2 mg/kg/injection, schedule: Q01DX010 (sc), vehicle: saline + alcohol): 77 % of control

Cc1ccc2c(c1)C(=O)N(CC[P+](c1ccccc1)(c1ccccc1)c1ccccc1)C2=O
T/C (dose: 3.13 mg/kg/injection, schedule: Q01DX010 (sc), vehicle: Klucel (hydroxypropylcellulose) (HPC)): 70 % of control | T/C (dose: 6.25 mg/kg/injection, schedule: Q01DX010 (sc), vehicle: Klucel (hydroxypropylcellulose) (HPC)): 37 % of control | T/C (dose: 12.5 mg/kg/injection, schedule: Q01DX010 (sc), vehicle: Klucel (hydroxypropylcellulose) (HPC)): 86 % of control | T/C (dose: 25.0 mg/kg/injection, schedule: Q01DX010 (sc), vehicle: Klucel (hydroxypropylcellulose) (HPC)): 75 % of control

CC(=O)O[C@@H]1[C@@H](O)C2=C3[C@]4(C)[C@@H]1C(C)(C)C(=O)C[C@@H]4[C@]3(O)[C@H](OC(C)=O)[C@@]1(C[C@@H]1C)C2=O
T/C [1]: 77 % of control | T/C [2]: 122 % of control | T/C [9]: 26 % of control | T/C (dose: 100.0 mg/kg/injection, schedule: Q01DX010 (sc), vehicle: saline with Tween-80): 68 % of control

O=[Te]=O
T/C (dose: 25.0 mg/kg/injection, schedule: Q04DX004 (sc), vehicle: Klucel (hydroxypropylcellulose) (HPC)): 170 % of control | T/C (dose: 50.0 mg/kg/injection, schedule: Q04DX004 (sc), vehicle: Klucel (hydroxypropylcellulose) (HPC)): 74 % of control

O=c1[nH]c(=O)n(C2CC(O)C(CO)O2)cc1F (configuration not stated)
T/C (dose: 25.0 mg/kg/injection, schedule: Q01DX010 (sc), vehicle: water): 65 % of control | T/C (dose: 50.0 mg/kg/injection, schedule: Q01DX010 (sc), vehicle: water): 75 % of control

COc1cccc2c1C(=O)c1c(O)c3c(c(O)c1C2=O)C[C@@](O)(/C(CO)=N/NC(=O)c1ccc(Cl)c(Cl)c1)C[C@@H]3OC1CC(N)C(O)C(C)O1 (some centres not stated)
T/C (dose: 4.0 mg/kg/injection, schedule: Q01DX010 (sc), vehicle: water): 226 % of control | T/C (dose: 8.0 mg/kg/injection, schedule: Q01DX010 (sc), vehicle: water): 88 % of control | T/C (dose: 20.0 mg/kg/injection, schedule: Q04DX004 (sc), vehicle: water): 113 % of control | T/C (dose: 40.0 mg/kg/injection, schedule: Q04DX004 (sc), vehicle: water): 59 % of control

CC(=Nc1ccccc1)C1=C(O)C(Cc2ccccc2)NC1=O (configuration not stated)
T/C [6]: 66 % of control | T/C [7]: 105 % of control | T/C (dose: 300.0 mg/kg/injection, schedule: Q04DX004 (sc), vehicle: saline with Tween-80): 43 % of control | T/C [8]: 80 % of control

CC[C@H]1CN2CCc3cc(OC)c(OC)cc3[C@@H]2C[C@@H]1C[C@H]1NCCc2cc(OC)c(OC)cc21
T/C [3]: 92 % of control | T/C [4]: 166 % of control | T/C [5]: 90 % of control

C=Cc1cnc([N+](=O)[O-])n1C
T/C (dose: 150.0 mg/kg/injection, schedule: Q04DX004 (sc), vehicle: Klucel (hydroxypropylcellulose) (HPC)): 110 % of control | T/C (dose: 300.0 mg/kg/injection, schedule: Q04DX004 (sc), vehicle: Klucel (hydroxypropylcellulose) (HPC)): 108 % of control
